Reference: patent publication US10703733B2, “MCL-1 inhibitors” (Gilead Sciences, Inc., priority 2018, dated 2020)
Where two headings read alike, the source gives them in different places.

Key:
[1] = target: MCL-1/Bim interaction (recombinant human MCL-1 protein, residues 171-327; biotinylated human Bim peptide, residues 51-76) (Homo sapiens (Human), UniProt Q07820); experiment: MCL-1/Bim Binding AlphaLISA Assay; settings: 0.0625 nM 6xHis-Mcl-1 (171-327), 0.0625 nM biotinylated-Bim peptide
Outline: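 Protein 0.0625 nM + cpd, 1 h; add biotin-Bim 0.0625 nM, 2 h; acceptor beads 1 h; donor beads 1 h; AlphaScreen read. Buffer 20 mM Hepes pH 7.5, 150 mM NaCl, 1 mM DTT.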

SKBR3 cells = experiment: SKBR3 Cell Viability Assay (CellTiter Glo); type: cell-based; settings: CellTiter Glo luminescence, read-out: MCL-1 CV SKBR3 EC50
Outline: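 Viability read as CellTiter Glo luminescence after 72 h of compound exposure at 37° C./5% CO2, using 6,000 SKBR3 cells per well in McCoy 5A with 10% FBS. Percent inhibition scaled between DMSO wells and 10 μM puromycin wells.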

Chain of MCL-1/Bim interaction (recombinant human MCL-1 protein, residues 171-327; biotinylated human Bim peptide, residues 51-76) (Q07820 171-327): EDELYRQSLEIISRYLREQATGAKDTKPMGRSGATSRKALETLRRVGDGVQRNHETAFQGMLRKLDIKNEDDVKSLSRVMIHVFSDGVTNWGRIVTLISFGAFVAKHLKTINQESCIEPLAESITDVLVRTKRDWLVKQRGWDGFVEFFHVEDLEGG

SMILES | IC50 [1] [nM] | EC50 (SKBR3 cells; Homo sapiens, SK-BR-3, 72 h) [nM] | EC50 (SKBR3 cells; 72 hours) [nM]
CO[C@H]1/C=C/C[C@H](C)C[S@@](=O)(NC(=O)N[C@H]2C[C@H](CO)C2)=NC(=O)c2ccc3c(c2)N(C[C@@H]2CC[C@H]21)C[C@@]1(CCCc2cc(Cl)ccc21)CO3 [Example 189] | 0.033 | 64.3 | 
CO[C@H]1/C=C/C[C@H](C)C[S@@](=O)(NC(=O)c2cc(Cl)n(C)c2)=NC(=O)c2ccc3c(c2)N(C[C@@H]2CC[C@H]21)C[C@@]1(CCCc2cc(Cl)ccc21)CO3 [Example 118] | 0.103 | 184 | 
CO[C@H]1/C=C/C[C@H](C)C[S@@](=O)(NC(=O)N2CC3(CN(C)C(=O)O3)C2)=NC(=O)c2ccc3c(c2)N(C[C@@H]2CC[C@H]21)C[C@@]1(CCCc2cc(Cl)ccc21)CO3 [Example 272] | 0.018 | 47.9 | 
CO[C@H]1/C=C/C[C@H](C)C[S@@](=O)(NC(=O)c2cn(C)nc2C2CC2)=NC(=O)c2ccc3c(c2)N(C[C@@H]2CC[C@H]21)C[C@@]1(CCCc2cc(Cl)ccc21)CO3 [Example 164] | 0.141 | 106 | 
COC[C@@H]1Cn2cc(C(=O)N[S@@]3(=O)=NC(=O)c4ccc5c(c4)N(C[C@@H]4CC[C@H]4[C@@H](O)/C=C/C[C@H](C)[C@H]3C)C[C@@]3(CCCc4cc(Cl)ccc43)CO5)cc2CO1 [Example 345] | 0.037 | 22.6 | 
COc1ncc(C(=O)N[S@@]2(=O)=NC(=O)c3ccc4c(c3)N(C[C@@H]3CC[C@H]3[C@@H](OC)/C=C/C[C@H](C)C2)C[C@@]2(CCCc3cc(Cl)ccc32)CO4)cn1 [Example 273] | 0.077 | 81 | 
COc1cn(C)nc1C(=O)O[C@H]1/C=C/[C@H](OC)[C@@H]2CC[C@H]2CN2C[C@@]3(CCCc4cc(Cl)ccc43)COc3ccc(cc32)C(=O)N=[S@](=O)(NC(=O)c2cn(C)nc2OC)CC1 [Example 391] | 0.702 |  | 4560
CO[C@H]1/C=C/CCC[S@@](=O)(NC(=O)COC2CCN(C(=O)N(C)C)CC2)=NC(=O)c2ccc3c(c2)N(C[C@@H]2CC[C@H]21)C[C@@]1(CCCc2cc(Cl)ccc21)CO3 [Example 417] | 0.092 | 403 | 
CCO[C@]1(C)C[C@H](NC(=O)N[S@@]2(=O)=NC(=O)c3ccc4c(c3)N(C[C@@H]3CC[C@H]3[C@@H](OC)/C=C/C[C@H](C)C2)C[C@@]2(CCCc3cc(Cl)ccc32)CO4)C1 [Example 225] | 0.043 | 51.3 | 
CCn1cc(C(=O)N[S@@]2(=O)=NC(=O)c3ccc4c(c3)N(C[C@@H]3CC[C@H]3[C@@H](OC)/C=C/CCC2)C[C@@]2(CCCc3cc(Cl)ccc32)CO4)cn1 [Example 405] | 0.113 | 196 | 
CO[C@H]1/C=C/C[C@H](C)C[S@@](=O)(NC(=O)N[C@@H]2C[C@@H]2F)=NC(=O)c2ccc3c(c2)N(C[C@@H]2CC[C@H]21)C[C@@]1(CCCc2cc(Cl)ccc21)CO3 [Example 116] | 0.08 | 141 | 
CO[C@H]1/C=C/C[C@H](C)C[S@@](=O)(NC(=O)N[C@H]2C[C@](C)(O)C2)=NC(=O)c2ccc3c(c2)N(C[C@@H]2CC[C@H]21)C[C@@]1(CCCc2cc(Cl)ccc21)CO3 [Example 172] | 0.022 | 125 | 
CO[C@H]1/C=C/C[C@H](C)C[S@@](=O)(NC(=O)COC2CC2)=NC(=O)c2ccc3c(c2)N(C[C@@H]2CC[C@H]21)C[C@@]1(CCCc2cc(Cl)ccc21)CO3 [Example 445] | 0.091 | 210 | 
CO[C@H]1/C=C/CCC[S@@](=O)(NC(=O)CCc2cc(C)nn2C)=NC(=O)c2ccc3c(c2)N(C[C@@H]2CC[C@H]21)C[C@@]1(CCCc2cc(Cl)ccc21)CO3 [Example 89] | 0.5 | 855 | 
COc1nn(C)cc1C(=O)NS1(=O)=NC(=O)c2ccc3c(c2)N(C[C@@H]2CC[C@H]2[C@@H](OC)/C=C/[C@H](OC(=O)CCc2ccccc2)[C@H](C)C1)C[C@@]1(CCCc2cc(Cl)ccc21)CO3 (single isomer, unassigned) [Example 378] | 1.15 |  | 1180
COc1nn(C)cc1C(=O)N[S@@]1(=O)=NC(=O)c2ccc3c(c2)N(C[C@@H]2CC[C@H]2[C@@H](N2CC(OC)C2)/C=C/C[C@H](C)C1)C[C@@]1(CCCc2cc(Cl)ccc21)CO3 [Example 464] | 0.209 | 222 | 
CO[C@H]1/C=C/C[C@H](C)C[S@@](=O)(NC(=O)c2cc3n(c2F)CCCC3)=NC(=O)c2ccc3c(c2)N(C[C@@H]2CC[C@H]21)C[C@@]1(CCCc2cc(Cl)ccc21)CO3 [Example 174] | 0.153 |  | 103
CO[C@H]1/C=C/CCC[S@@](=O)(NC(=O)CCc2csc(C)n2)=NC(=O)c2ccc3c(c2)N(C[C@@H]2CC[C@H]21)C[C@@]1(CCCc2cc(Cl)ccc21)CO3 [Example 99] | 0.2 | 2090 | 
CO[C@H]1/C=C/C[C@H](C)C[S@@](=O)(NC(=O)N[C@@H]2C[C@H]2F)=NC(=O)c2ccc3c(c2)N(C[C@@H]2CC[C@H]21)C[C@@]1(CCCc2cc(Cl)ccc21)CO3 [Example 364] | 0.064 | 259 | 
CO[C@@H]1CCN(C(=O)N[S@@]2(=O)=NC(=O)c3ccc4c(c3)N(C[C@@H]3CC[C@H]3[C@@H](OC)/C=C/C[C@H](C)C2)C[C@@]2(CCCc3cc(Cl)ccc32)CO4)C1 [Example 350] | 0.055 | 75.6 | 
CO[C@H]1/C=C/C[C@H](C)C[S@@](=O)(NC(=O)C2CC2c2cnn(C)c2)=NC(=O)c2ccc3c(c2)N(C[C@@H]2CC[C@H]21)C[C@@]1(CCCc2cc(Cl)ccc21)CO3 (some centres unmarked) [Example 425] | 0.078 | 171 | 
CO[C@H]1/C=C/C[C@H](C)[C@@H](C)[S@@](=O)(NC(=O)CO[C@H]2CCOC[C@H]2F)=NC(=O)c2ccc3c(c2)N(C[C@@H]2CC[C@H]21)C[C@@]1(CCCc2cc(Cl)ccc21)CO3 [Example 133] | 0.051 | 130 | 
CO[C@H]1/C=C/C[C@H](C)C[S@@](=O)(NC(=O)c2ccc3c(c2)COCC3)=NC(=O)c2ccc3c(c2)N(C[C@@H]2CC[C@H]21)C[C@@]1(CCCc2cc(Cl)ccc21)CC3 [Example 157] | 0.234 | 64.8 | 
COc1nn(C)cc1C(=O)N[S@@]1(=O)=NC(=O)c2ccc3c(c2)N(C[C@@H]2CC[C@H]2[C@@H](OC)/C=C/[C@H](O)[C@H](C)[C@H]1C)C[C@@]1(CCCc2cc(Cl)ccc21)CO3 [Example 374] | 0.058 | 47.5 | 
CO[C@H]1/C=C/C[C@H](C)C[S@@](=O)(NC(=O)N2CC(N(C)C)C2)=NC(=O)c2ccc3c(c2)N(C[C@@H]2CC[C@H]21)C[C@@]1(CCCc2cc(Cl)ccc21)CO3 [Example 333] | 0.039 | 38.3 | 
CNCCO[C@H]1/C=C/[C@H](OC)[C@@H]2CC[C@H]2CN2C[C@@]3(CCCc4cc(Cl)ccc43)COc3ccc(cc32)C(=O)N=[S@](=O)(NC(=O)c2cn(C)nc2OC)C[C@H]1C [Example 386] | 0.048 | 83.8 | 
COC(=O)N1CCN(C(=O)N[S@@]2(=O)=NC(=O)c3ccc4c(c3)N(C[C@@H]3CC[C@H]3[C@@H](OC)/C=C/C[C@H](C)C2)C[C@@]2(CCCc3cc(Cl)ccc32)CO4)CC1 [Example 245] | 0.066 | 60.7 | 
CCCn1cc(C(=O)N[S@@]2(=O)=NC(=O)c3ccc4c(c3)N(C[C@@H]3CC[C@H]3[C@@H](OC)/C=C/C[C@H](C)C2)C[C@@]2(CCCc3cc(Cl)ccc32)CO4)cn1 [Example 420] | 0.237 | 124 | 
